# Source: publication PMC9856044 (Biomolecules, 2023)
# What was measured:
# [1] = target: Tel22 (5′-AGGG(TTAGGG)3–3′) G-quadruplex; assay: Fluorimetric titration with Tel22 in potassium phosphate buffer (K+ solution); assay type: binding, human; settings: Tel22, K+ solution; no accurate fit possible
# Description: (§1) Materials. Polynucleotides were purchased as noted: poly A–poly U, calf thymus ctDNA, poly(dAdT)2 and poly(dGdC)2 (Sigma-Aldrich, St. Louis, MI, USA). Polynucleotides were dissolved in Na-cacodylate buffer, I = 0.05 mol dm^−3, pH = 7.0. The calf thymus ctDNA was additionally sonicated and filtered through a […]. Polynucleotide concentration was determined spectroscopically as the concentration of phosphates. Spectrophotometric titrations were performed at pH = 7.0 (I = 0.05 mol dm^−3, sodium cacodylate buffer) by adding aliquots of polynucleotide solution into the solution of the studied compound for fluorimetric experiments and CD experiments were done by adding aliquots of the compound stock solution into the solution of a polynucleotide. In fluorimetric experiments, an excitation wavelength of λexc = 425, 431, 423, 427, 406 and 407 nm, respectively, was used to avoid the inner filter effect caused due to increasing absorbance of the polynucleotide. Emission was collected in the range λem = 400–700 nm. Values for Ka obtained by processing titration data using the Scatchard equation [27], all have satisfactory correlation coefficients (≥0.98).
# (§2) Thermal melting curves for DNA, RNA and their complexes with studied compounds were determined as previously described by following the absorption change at 260 nm as a function of temperature. The absorbance of the ligands was subtracted from every curve and the absorbance scale was normalized. Tm values are the midpoints of the transition curves determined from the maximum of the first derivative and checked graphically by the tangent method. The ∆Tm values were calculated by subtracting Tm of the free nucleic acid from Tm of the complex. Every ∆Tm value here reported was the average of two measurements. The error in ∆Tm is ±0.5 °C. 5′-AGGG(TTAGGG)3–3′(Tel22) was obtained from IDT (Integrated DNA Technologies, Coralville, IA, USA). Tel22 was dissolved in 0.1 M either in sodium cacodylate or potassium phosphate buffer. The starting Tel22 oligonucleotide solution was first heated up to 95 °C for 10 min, then slowly cooled to 10 °C at the cooling rate of 1 °C/min to allow DNA oligonucleotide to adopt a G-quadruplex structure. The G-quadruplex structure was confirmed by thermal melting and CD spectra. The concentration of G quadruplex was expressed in terms of oligonucleotide structure. In fluorimetric titrations, aliquots of Tel 22 solution were added to the solution of ligands (c ~ 2 × 10^−7 M, in SI).
# (§3) Binding constants (log Ka) and stoichiometry of complexes were calculated from the fluorimetric data using non-linear least-square program SPECFIT [46], in the concentration range that corresponded to 20–80% complex formed.
# SK-OV-3 cells = assay: MTT cytotoxicity assay, SK-OV-3; assay type: cell-based; settings: Homo sapiens, SK-OV-3, 72 h incubation, ± SD
# Description: (§4) Human cervical carcinoma HeLa (GIBCO BRL, Invitrogen, Waltham, MA, USA), human melanoma MDA-MB-435S and human ovarian adenocarcinoma SK-OV-3 (ATCC-LGC Standards GmbH, Wesel, Germany) cell lines were purchased from indicated cell culture banks. Normal human skin fibroblasts were isolated from the upper arm of a donor at the Neurochemical Laboratory, Department of Chemistry and Biochemistry, School of Medicine, University of Zagreb. HeLa, MDA-MB-435S and fibroblasts were grown in Dulbecco’s Modified Eagle’s Medium (DMEM; Sigma-Aldrich, St. Louis, MI, USA) while the SK-OV-3 cell line was grown in McCoy’s 5A medium (Capricorn Scientific, Ebsdorfergrund, Germany). All media were supplemented with 10% fetal bovine serum (FBS; Sigma-Aldrich) and 50 I.U./mL penicillin and 50 μg/mL streptomycin. Cells were cultured in a humidified atmosphere of 5% CO2 at 37 °C and were sub-cultured every 3–4 days. HeLa, MDA-MB-435S, SK-OV-3 cells and fibroblasts were seeded in 96 well plates. Twenty-four hours later the cells were treated, in quadruplicate, with different concentrations of compounds (dissolved in DMSO, kept at 4 °C and protected from light). Following 72 h of incubation at 37 °C, the medium was aspired and modified 3-(4,5-dimethylthiazol-2-yl)-2,5-diphenyltetrazolium bromide (MTT) assay was used to determine the cytotoxic effect of the tested compounds. Three hours later, formazan crystals were dissolved in DMSO (0.17 mL/well), the plates were mechanically agitated for 20 min and the optical density at 600 nm was determined on a microtiter plate reader (Awareness Technology Inc., Palm City, FL, USA). The experiments were repeated three times.
# Fibroblasts = assay: MTT cytotoxicity assay, normal human skin fibroblasts; assay type: cell-based; settings: Fibroblast, 72 h incubation, ± SD
# Description: as §4
# Tel22 G-quadruplex [2] = assay: Thermal melting of Tel22 in potassium phosphate buffer; assay type: binding, human; settings: Tel22, r = 1.0, potassium phosphate buffer, pH = 7.0, I = 0.1 mol dm^−3; error ±0.5 °C
# Description: as §2
# Tel22 G-quadruplex [3] = assay: Thermal melting of Tel22 in sodium cacodylate buffer; assay type: binding, human; settings: Tel22, r = 1.0, sodium cacodylate buffer, pH = 7.0, I = 0.1 mol dm^−3; error ± 0.5 °C
# Description: as §2
# ds-DNA and ds-RNA = assay: Thermal melting of ds-DNA and ds-RNA; assay type: binding; settings: r [compound]/[nucleotide phosphate] = 0.1
# Description: as §2
# Binding abilities of 1–6 compounds were further explored by thermal melting experiments. […]
# [4] = Solubility and aggregation (UV/Vis characterization); assay type: physicochemical; settings: sodium cacodylate buffer, I = 0.05 mol dm^−3, pH = 7.0; UV/Vis
# Description: The UV/vis spectra were recorded on a Varian Cary 100 Bio spectrophotometer (Agilent, Santa Clara, CA, USA), CD spectra on JASCO J815 spectrophotometer (ABL&E Handels GmbH, Wien, Austria) and fluorescence spectra on a Varian Cary Eclipse spectrophotometer (Agilent, Santa Clara, CA, USA) at 25 °C using appropriate 1 cm path quartz cuvettes.
# Studied compounds, 1–6 were soluble (c = 8 × 10^−4 mol dm^−3) in DMSO. […] Therefore, the stock solution of 2 was prepared fresh before use. The experiments were done in aqueous buffer (sodium cacodylate buffer, I = 0.05 mol dm^−3; pH = 7.0).
# However, the shape of UV/Vis spectra of cyanine 2 changed with increasing concentration (calibration experiment in Figure S2 in SI). In addition to the dominant maximum at 432 nm (which most likely corresponds to the monomer form of the dye), the absorption band at 413 nm becomes more intense (Figure S2 in SI). Presumably, it corresponds to the aggregated form (H-aggregate). Based on the existence of an absorption band at 432 nm, only the monomer dye form is visible at high temperature (95 °C) (Figure S8b in SI). However, after cooling the solution to 25 °C, an additional band appears at 413 nm, which corresponds to the aggregated dye form.
# HeLa cells = assay: MTT cytotoxicity assay, HeLa; assay type: cell-based; settings: Homo sapiens, 72 h incubation, ± SD
# Description: as §4
# MDA-MB-435S cells = assay: MTT cytotoxicity assay, MDA-MB-435S; assay type: cell-based; settings: Homo sapiens, 72 h incubation, ± SD
# Description: as §4
# [5] = target: Tel22 (5′-AGGG(TTAGGG)3–3′) G-quadruplex; assay: Fluorimetric titration with Tel22 in sodium cacodylate buffer (Na+ solution); assay type: binding, human; settings: Tel22, sodium cacodylate buffer, pH = 7.0, I = 0.1 mol dm^−3; SPECFIT fit of fluorescence titration
# Description: as §1, §2, §3
# [6] = test system: Tel22 (DNA, G4) AGGGTTAGGGTTAGGGTTAGGG; assay: UV thermal melting, 260 nm; settings: Na+ (sodium cacodylate, I = 0.1 M); pH 7.0; Tel22 2 µM, r = 1.0 (compound 2 µM)
# [7] = test system: Tel22 (DNA, G4) AGGGTTAGGGTTAGGGTTAGGG; assay: fluorescence titration; settings: K+ (potassium phosphate, I = 0.1 M); pH 7.0, 25 °C; emission increase, no constant fitted
# [8] = test system: Tel22 (DNA, G4) AGGGTTAGGGTTAGGGTTAGGG; assay: fluorescence titration (SPECFIT); settings: Na+ (sodium cacodylate, I = 0.1 M); pH 7.0, 25 °C; site 1 of 2
SMILES,log Ka (indicated by steeper slope of titration curves) [1],IC50 (SK-OV-3 cells) [µM],IC50 (Fibroblasts) [µM],∆Tm (Tel22 G-quadruplex [2]) [°C],∆Tm (Tel22 G-quadruplex [3]) [°C],Effect on DNA/RNA thermal stability (ds-DNA and ds-RNA),Aggregation in aqueous buffer [4],IC50 (HeLa cells) [µM],IC50 (MDA-MB-435S cells) [µM],logKa1 (L + G ⇆ LG) [5],logKa2 (LG + G ⇆ LG2) [5],∆Tm [6] [°C],binding [7],logKa1 [8],melting point [°C]
"C[n+]1c(/C=C2\Sc3ccccc3N2CCS)[se]c2ccccc21 [Compound 6, 2-((3-(2-mercaptoethyl)benzo[d]thiazol-2(3H)-ylidene)methyl)-3-methylbenzo[d][1,3]selenazol-3-ium methosulphate]",≥ 7,> 40,> 40,6.9,2.0,did not show any impact,significantly aggregate,30.7 ± 4.07,32.8 ± 3.76,,,,,,
"C[n+]1c(C=C2Sc3ccccc3N2CCCS(=O)(=O)[O-])[se]c2ccccc21 [Compound 1, 3-(2-((3-methylbenzo[d][1,3]selenazol-3-ium-2-yl)methylene)benzo[d]thiazol-3(2H)-yl)propane-1-sulfonate]",,32.8 ± 1.09,> 40,,0,,do not form aggregates,31.9 ± 1.14,18.5 ± 1.23,6.93 ± 0.25,5.69 ± 0.23,0,yes,6.93 ± 0.25,> 300
